Laboratory results taken from ChEMBL document CHEMBL1147772, “The identification of potent and selective imidazole-based inhibitors of B-Raf kinase” (Bioorg Med Chem Lett, 2006).

Tests used:
[1] = target: T1, Serine/threonine-protein kinase B-raf (Homo sapiens, UniProt P15056)
Description: Binding affinity at bRaf kinase in fluorescent ligand displacement assay

[2] = target: T1, Serine/threonine-protein kinase B-raf; remark: listed apart in the source
Description: Inhibition bRaf kinase activity

[3] = target: Casein kinase II (Homo sapiens) (UniProt P67870+P68400+P19784); test: Inhibition of CK2 activity at 10 uM; assay type: protein-complex assay
[4] = target: Glycogen synthase kinase-3 beta (Homo sapiens) (UniProt P49841); test: Inhibition of GSK3-beta activity at 10 uM
[5] = target: Mitogen-activated protein kinase 8 (Homo sapiens) (UniProt P45983); test: Inhibition of JNK1 activity at 10 uM
Sequence of Mitogen-activated protein kinase 8 (Homo sapiens) (P45983 whole entry): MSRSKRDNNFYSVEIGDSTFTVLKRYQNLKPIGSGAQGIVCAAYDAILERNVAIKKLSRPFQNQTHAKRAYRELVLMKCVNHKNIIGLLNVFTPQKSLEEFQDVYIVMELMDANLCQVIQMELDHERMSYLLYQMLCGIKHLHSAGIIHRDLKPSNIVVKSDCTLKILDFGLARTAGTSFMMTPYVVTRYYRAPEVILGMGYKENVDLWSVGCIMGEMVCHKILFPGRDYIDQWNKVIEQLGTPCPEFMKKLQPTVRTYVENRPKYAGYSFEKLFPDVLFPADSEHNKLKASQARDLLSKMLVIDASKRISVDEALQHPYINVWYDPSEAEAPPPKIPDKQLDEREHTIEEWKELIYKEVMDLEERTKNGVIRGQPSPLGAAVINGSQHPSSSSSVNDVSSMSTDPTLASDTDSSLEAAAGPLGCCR

[6] = target: Tyrosine-protein kinase Lck (Homo sapiens) (UniProt P06239); test: Inhibition of Lck activity at 10 uM
[7] = target: Mitogen-activated protein kinase 1 (Homo sapiens) (UniProt P28482); test: Inhibition of MAPK2 activity at 10 uM
Sequence of Mitogen-activated protein kinase 1 (Homo sapiens) (P28482 whole entry): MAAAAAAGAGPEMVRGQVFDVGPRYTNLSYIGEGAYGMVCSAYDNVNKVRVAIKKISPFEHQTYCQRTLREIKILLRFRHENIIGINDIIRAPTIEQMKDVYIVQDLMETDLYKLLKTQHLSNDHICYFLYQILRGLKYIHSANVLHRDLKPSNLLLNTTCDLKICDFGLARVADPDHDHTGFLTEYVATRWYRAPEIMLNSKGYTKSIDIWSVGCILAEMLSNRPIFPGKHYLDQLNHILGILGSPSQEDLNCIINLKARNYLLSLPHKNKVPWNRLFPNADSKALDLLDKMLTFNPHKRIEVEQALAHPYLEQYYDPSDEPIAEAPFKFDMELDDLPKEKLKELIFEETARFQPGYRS

[8] = target: MAP kinase-activated protein kinase 2 (Homo sapiens) (UniProt P49137); test: Inhibition of MAPKAPK2 activity at 10 uM
[9] = target: Dual specificity mitogen-activated protein kinase kinase 1 (Homo sapiens) (UniProt Q02750); test: Inhibition of MEK1 activity at 10 uM
Sequence of Dual specificity mitogen-activated protein kinase kinase 1 (Homo sapiens) (Q02750 whole entry): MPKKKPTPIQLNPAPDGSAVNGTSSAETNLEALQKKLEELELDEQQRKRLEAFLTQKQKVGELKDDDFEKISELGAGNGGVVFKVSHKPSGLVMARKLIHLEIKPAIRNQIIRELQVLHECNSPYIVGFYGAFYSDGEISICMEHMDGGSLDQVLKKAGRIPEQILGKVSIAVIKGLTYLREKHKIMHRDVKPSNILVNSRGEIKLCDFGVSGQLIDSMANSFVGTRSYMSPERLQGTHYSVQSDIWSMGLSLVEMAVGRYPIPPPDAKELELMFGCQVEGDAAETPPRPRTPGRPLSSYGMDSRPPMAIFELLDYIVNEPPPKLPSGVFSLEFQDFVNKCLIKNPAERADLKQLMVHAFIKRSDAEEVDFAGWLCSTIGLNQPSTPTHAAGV

[10] = target: Ribosomal protein S6 kinase alpha-5 (Homo sapiens) (UniProt O75582); test: Inhibition of MSK1 activity at 10 uM
Sequence of Ribosomal protein S6 kinase alpha-5 (Homo sapiens) (O75582 whole entry, looked up): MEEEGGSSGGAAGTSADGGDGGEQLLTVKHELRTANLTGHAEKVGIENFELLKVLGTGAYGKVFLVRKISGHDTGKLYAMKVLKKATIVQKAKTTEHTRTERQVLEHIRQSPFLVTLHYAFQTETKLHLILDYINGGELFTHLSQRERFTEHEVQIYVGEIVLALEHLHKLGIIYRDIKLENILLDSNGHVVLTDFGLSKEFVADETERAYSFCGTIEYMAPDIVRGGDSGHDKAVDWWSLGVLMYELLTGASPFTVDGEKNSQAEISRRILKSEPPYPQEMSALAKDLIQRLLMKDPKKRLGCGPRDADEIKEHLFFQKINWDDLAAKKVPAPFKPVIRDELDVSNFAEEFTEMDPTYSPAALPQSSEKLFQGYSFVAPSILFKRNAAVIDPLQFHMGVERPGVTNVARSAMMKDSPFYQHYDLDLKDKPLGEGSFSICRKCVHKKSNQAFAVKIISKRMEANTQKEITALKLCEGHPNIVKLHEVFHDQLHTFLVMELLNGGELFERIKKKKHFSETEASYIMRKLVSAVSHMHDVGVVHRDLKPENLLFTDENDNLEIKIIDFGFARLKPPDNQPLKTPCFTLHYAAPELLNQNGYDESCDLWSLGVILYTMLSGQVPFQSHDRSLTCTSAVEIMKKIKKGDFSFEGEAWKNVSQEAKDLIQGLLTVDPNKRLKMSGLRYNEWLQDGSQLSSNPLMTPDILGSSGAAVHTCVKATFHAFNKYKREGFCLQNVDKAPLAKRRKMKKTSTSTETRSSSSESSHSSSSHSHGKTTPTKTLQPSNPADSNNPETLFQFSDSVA

[11] = target: Ribosomal protein S6 kinase (P70S6K) (Homo sapiens) (UniProt Q9UBS0+P23443); test: Inhibition of p70S6K activity at 10 uM; assay type: protein-complex assay
[12] = target: RAC-alpha serine/threonine-protein kinase (Homo sapiens) (UniProt P31749); test: Inhibition of PKBalpha activity at 10 uM
[13] = target: Phosphorylase kinase (Homo sapiens) (UniProt P15735+P46020+P46019+Q93100+Q16816); test: Inhibition of phosphorylase kinase activity at 10 uM; assay type: protein-complex assay
[14] = target: cAMP-dependent protein kinase (PKA) (Homo sapiens) (UniProt P22694+P17612+P22612); test: Inhibition of PKA activity at 10 uM; assay type: protein assay
[15] = target: Protein kinase C alpha type (Homo sapiens) (UniProt P17252); test: Inhibition of PKCalpha activity at 10 uM
[16] = target: MAP kinase-activated protein kinase 5 (Homo sapiens) (UniProt Q8IW41); test: Inhibition of PRAK activity at 10 uM
[17] = target: Rho-associated protein kinase 2 (Homo sapiens) (UniProt O75116); test: Inhibition of ROCK2 activity at 10 uM
[18] = target: Mitogen-activated protein kinase 11 (Homo sapiens) (UniProt Q15759); test: Inhibition of p38-beta MAPK activity at 10 uM
Sequence of Mitogen-activated protein kinase 11 (Homo sapiens) (Q15759 whole entry): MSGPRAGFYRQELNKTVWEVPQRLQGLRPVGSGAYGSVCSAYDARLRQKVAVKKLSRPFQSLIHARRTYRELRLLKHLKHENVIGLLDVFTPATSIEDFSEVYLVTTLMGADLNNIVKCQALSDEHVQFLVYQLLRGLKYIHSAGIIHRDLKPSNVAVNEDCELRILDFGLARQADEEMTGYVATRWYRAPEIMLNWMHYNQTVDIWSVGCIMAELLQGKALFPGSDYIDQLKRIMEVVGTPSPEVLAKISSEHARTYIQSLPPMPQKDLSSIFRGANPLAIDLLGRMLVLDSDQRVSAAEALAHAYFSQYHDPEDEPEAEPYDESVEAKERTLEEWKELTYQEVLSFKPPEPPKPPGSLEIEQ

[19] = target: Mitogen-activated protein kinase 12 (Homo sapiens) (UniProt P53778); test: Inhibition of p38-gamma MAPK activity at 10 uM
Sequence of Mitogen-activated protein kinase 12 (Homo sapiens) (P53778 whole entry): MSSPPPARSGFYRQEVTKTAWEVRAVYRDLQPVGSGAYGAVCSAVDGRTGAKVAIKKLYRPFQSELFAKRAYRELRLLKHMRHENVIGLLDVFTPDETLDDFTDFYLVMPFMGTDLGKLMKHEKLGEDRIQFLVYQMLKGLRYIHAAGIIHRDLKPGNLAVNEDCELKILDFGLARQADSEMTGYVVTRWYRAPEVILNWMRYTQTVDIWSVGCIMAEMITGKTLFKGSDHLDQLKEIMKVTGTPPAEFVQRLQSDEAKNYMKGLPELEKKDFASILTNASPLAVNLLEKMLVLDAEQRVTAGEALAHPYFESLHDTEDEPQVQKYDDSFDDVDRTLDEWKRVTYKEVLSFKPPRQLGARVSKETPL

[20] = target: Mitogen-activated protein kinase 13 (Homo sapiens) (UniProt O15264); test: Inhibition of p38delta MAPK activity at 10 uM
Sequence of Mitogen-activated protein kinase 13 (Homo sapiens) (O15264 whole entry): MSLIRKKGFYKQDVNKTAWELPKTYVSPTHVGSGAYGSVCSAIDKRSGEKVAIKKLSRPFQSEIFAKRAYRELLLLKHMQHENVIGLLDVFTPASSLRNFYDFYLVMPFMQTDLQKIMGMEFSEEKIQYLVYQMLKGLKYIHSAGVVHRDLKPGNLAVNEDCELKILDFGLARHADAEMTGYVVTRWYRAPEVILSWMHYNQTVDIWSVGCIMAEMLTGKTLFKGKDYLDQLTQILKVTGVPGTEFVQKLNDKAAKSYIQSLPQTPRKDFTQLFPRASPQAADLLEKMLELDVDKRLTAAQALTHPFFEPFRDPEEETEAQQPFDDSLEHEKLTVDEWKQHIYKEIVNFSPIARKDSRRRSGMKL

[21] = target: Serine/threonine-protein kinase Sgk1 (Homo sapiens) (UniProt O00141); test: Inhibition of SGK activity at 10 uM
[22] = target: AMP-activated protein kinase, AMPK (Homo sapiens) (UniProt P54646+O43741+P54619+Q9UGJ0+Q9Y478+Q13131+Q9UGI9); test: Inhibition of AMPK activity at 10 uM; assay type: protein-complex assay
[23] = target: Serine/threonine-protein kinase Chk1 (Homo sapiens) (UniProt O14757); test: Inhibition of CHK1 activity at 10 uM
Sequence of Serine/threonine-protein kinase Chk1 (Homo sapiens) (O14757 whole entry): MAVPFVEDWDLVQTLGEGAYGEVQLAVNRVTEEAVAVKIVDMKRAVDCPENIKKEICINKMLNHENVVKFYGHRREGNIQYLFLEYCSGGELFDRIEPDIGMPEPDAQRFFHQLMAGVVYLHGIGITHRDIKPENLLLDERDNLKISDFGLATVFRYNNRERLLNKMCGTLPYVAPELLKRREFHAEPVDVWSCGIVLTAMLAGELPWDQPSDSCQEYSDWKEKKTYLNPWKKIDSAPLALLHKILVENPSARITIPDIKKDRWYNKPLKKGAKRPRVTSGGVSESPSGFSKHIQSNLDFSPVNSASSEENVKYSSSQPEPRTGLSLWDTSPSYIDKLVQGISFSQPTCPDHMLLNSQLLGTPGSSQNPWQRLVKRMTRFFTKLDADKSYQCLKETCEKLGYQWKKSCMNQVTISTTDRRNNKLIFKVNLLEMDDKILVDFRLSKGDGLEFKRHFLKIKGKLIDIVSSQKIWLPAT

T1 sequence (P15056 whole entry): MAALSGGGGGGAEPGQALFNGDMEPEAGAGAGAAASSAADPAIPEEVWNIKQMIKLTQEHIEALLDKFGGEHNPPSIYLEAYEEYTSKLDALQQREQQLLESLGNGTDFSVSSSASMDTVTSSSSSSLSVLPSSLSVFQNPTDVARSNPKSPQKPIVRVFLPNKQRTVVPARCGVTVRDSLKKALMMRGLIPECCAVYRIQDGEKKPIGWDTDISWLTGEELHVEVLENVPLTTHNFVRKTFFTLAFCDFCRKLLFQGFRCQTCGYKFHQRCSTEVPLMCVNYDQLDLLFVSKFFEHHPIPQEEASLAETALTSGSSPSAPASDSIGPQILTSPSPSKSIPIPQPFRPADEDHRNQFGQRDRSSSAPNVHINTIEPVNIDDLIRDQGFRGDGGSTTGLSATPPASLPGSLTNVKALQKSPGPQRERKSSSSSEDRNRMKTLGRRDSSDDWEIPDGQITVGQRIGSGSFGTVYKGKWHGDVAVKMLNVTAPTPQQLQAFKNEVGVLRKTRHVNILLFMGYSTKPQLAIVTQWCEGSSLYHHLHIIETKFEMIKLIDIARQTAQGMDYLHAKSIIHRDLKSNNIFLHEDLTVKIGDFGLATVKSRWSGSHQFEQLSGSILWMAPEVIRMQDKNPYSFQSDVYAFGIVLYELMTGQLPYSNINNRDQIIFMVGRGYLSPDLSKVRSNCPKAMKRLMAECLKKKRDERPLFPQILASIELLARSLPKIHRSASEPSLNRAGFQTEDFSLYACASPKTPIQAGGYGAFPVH

OCc1ccc(-c2[nH]c(-c3ccccc3)nc2-c2ccncc2)cc1Cl
Kd [1]: 0.132 µM

CC(C)(C)c1nc(-c2ccncc2)c(-c2ccc(F)cc2)[nH]1
IC50 [2]: 0.9 µM

Oc1cccc(-c2nc(-c3ccccc3)[nH]c2-c2ccncc2)c1
Kd [1]: 0.008 µM

Oc1cc(-c2[nH]c(-c3ccccc3)nc2-c2ccncn2)ccc1Cl
Kd [1]: 0.014 µM

CC(C)(CNC(=O)Nc1ccc(Cl)cc1)c1nc(-c2ccc(Cl)c(O)c2)c(-c2ccncc2)[nH]1
IC50 [2]: 0.013 µM | Kd [1]: 0.021 µM

O/N=C/c1ccc(-c2[nH]c(-c3ccccc3)nc2-c2ccncc2)cc1
Kd [1]: 0.005 µM

O/N=C/c1ccc(-c2[nH]c(-c3ccccc3)nc2-c2ccncc2)cc1O
Kd [1]: 0.027 µM

C/C(=N\O)c1ccc(-c2[nH]c(-c3ccccc3)nc2-c2ccncc2)cc1
Kd [1]: 0.011 µM

CN(C)CCOc1ccc(-c2nc(-c3ccncc3)c(-c3ccc4c(c3)CC/C4=N\O)[nH]2)cc1
inhibition [3]: 8% | inhibition [4]: 25% | inhibition [5]: 19% | inhibition [6]: 39% | inhibition [7]: 11% | inhibition [8]: 9% | inhibition [9]: 14% | inhibition [10]: 38% | inhibition [11]: 13% | inhibition [12]: 8% | inhibition [13]: 3% | inhibition [14]: -2% | inhibition [15]: 10% | inhibition [16]: 18% | inhibition [17]: 26% | inhibition [18]: 9% | inhibition [19]: 10% | inhibition [20]: 10% | inhibition [21]: 17% | inhibition [22]: 14% | inhibition [23]: 9%

Oc1cc(-c2[nH]c(-c3ccccc3)nc2-c2ccnnc2)ccc1Cl
Kd [1]: 0.087 µM

OC1CCc2cc(-c3[nH]c(-c4ccccc4)nc3-c3ccncc3)ccc21 (stereo not given)
Kd [1]: > 0.2 µM

OCc1ccc(-c2[nH]c(-c3ccccc3)nc2-c2ccncc2)cc1O
Kd [1]: 0.022 µM

Oc1cc(-c2nc(-c3ccccc3)[nH]c2-c2ccncc2)ccc1Cl
inhibition [3]: -3% | inhibition [4]: 83% | inhibition [5]: 0% | inhibition [6]: 88% | inhibition [7]: -3% | inhibition [8]: -1% | inhibition [9]: 5% | inhibition [10]: 7% | inhibition [11]: 26% | inhibition [12]: 44% | inhibition [13]: 17% | inhibition [14]: 12% | inhibition [15]: 2% | inhibition [16]: 19% | inhibition [17]: 3% | inhibition [18]: 81% | inhibition [19]: 5% | inhibition [21]: 2% | inhibition [22]: 12% | inhibition [23]: 1% | IC50 [2]: 0.01 µM | Kd [1]: 0.0024 µM

OCc1cccc(-c2[nH]c(-c3ccccc3)nc2-c2ccncc2)c1
IC50 [2]: 1.59 µM | Kd [1]: > 0.196 µM

Nc1nccc(-c2[nH]c(-c3ccccc3)nc2-c2ccc(Cl)c(O)c2)n1
Kd [1]: 0.0057 µM

N=C(NO)c1ccc(-c2[nH]c(-c3ccccc3)nc2-c2ccncc2)cc1
Kd [1]: 0.053 µM

Oc1cc(-c2[nH]c(-c3cccnc3)nc2-c2ccncc2)ccc1Cl
IC50 [2]: 0.006 µM

COc1cccc(-c2nc(-c3ccccc3)[nH]c2-c2ccncc2)c1
Kd [1]: > 0.196 µM

Oc1ccc(-c2nc(-c3ccccc3)[nH]c2-c2ccncc2)cc1
IC50 [2]: 0.339 µM | Kd [1]: 0.316 µM

CN(C)CCCNC(=O)c1nc(-c2ccncc2)c(-c2ccc(Cl)c(O)c2)[nH]1
IC50 [2]: 0.04 µM | Kd [1]: 0.024 µM

CC(C)(CNS(C)(=O)=O)c1nc(-c2ccc(Cl)c(O)c2)c(-c2ccncc2)[nH]1
IC50 [2]: 0.014 µM | Kd [1]: 0.01 µM

Oc1cc(-c2[nH]c(-c3ccccc3)nc2-c2cccnc2)ccc1Cl
Kd [1]: > 0.2 µM

Oc1cc(-c2[nH]c(-c3ccco3)nc2-c2ccncc2)ccc1Cl
IC50 [2]: 0.013 µM | Kd [1]: 0.0042 µM

O/N=C/c1ccc(-c2[nH]c(-c3ccccc3)nc2-c2ccncc2)cc1Cl
Kd [1]: 0.006 µM

Oc1cc(-c2[nH]cnc2-c2ccncc2)ccc1Cl
IC50 [2]: 0.033 µM | Kd [1]: 0.039 µM

CC(C)(C)c1nc(-c2ccncc2)c(-c2ccc(Cl)c(O)c2)[nH]1
IC50 [2]: 0.012 µM | Kd [1]: 0.002 µM

CC(C)(CN)c1nc(-c2ccc(Cl)c(O)c2)c(-c2ccncc2)[nH]1
IC50 [2]: 0.006 µM | Kd [1]: 0.0048 µM

O/N=C1/CCCc2cc(-c3[nH]c(-c4ccccc4)nc3-c3ccncc3)ccc21
Kd [1]: 0.017 µM

OCc1ccc(-c2[nH]c(-c3ccccc3)nc2-c2ccncc2)cc1
Kd [1]: 0.071 µM

Oc1cc(-c2[nH]c(-c3ccccc3)nc2-c2ccccc2)ccc1Cl
Kd [1]: > 0.2 µM
